In publication PMC12747546, “Homoharringtonine suppresses acute myeloid leukemia progression by orchestrating EWSR1 phase separation in an m^6A‐YTHDF2‐dependent mechanism” (iMeta, 2025):
Substitutions are numbered along the chain they refer to. pKd: −log10 of the molar value.

Assays:
Test in all cases: microscale thermophoresis
Details in all cases: EWSR1-C mutant; read-out: binding constants
EWSR1-C (GFP-EWSR1-C) [1] = biological target: T1, EWSR1-C (GFP-EWSR1-C) (Homo sapiens, UniProt Q01844, I400A)
T1 construct: C-terminal region 301-656 (contains RNA recognition motif 353-453), GFP fusion, overexpressed in HEK293T, lysate
T1 sequence (Q01844 301-656 I400A): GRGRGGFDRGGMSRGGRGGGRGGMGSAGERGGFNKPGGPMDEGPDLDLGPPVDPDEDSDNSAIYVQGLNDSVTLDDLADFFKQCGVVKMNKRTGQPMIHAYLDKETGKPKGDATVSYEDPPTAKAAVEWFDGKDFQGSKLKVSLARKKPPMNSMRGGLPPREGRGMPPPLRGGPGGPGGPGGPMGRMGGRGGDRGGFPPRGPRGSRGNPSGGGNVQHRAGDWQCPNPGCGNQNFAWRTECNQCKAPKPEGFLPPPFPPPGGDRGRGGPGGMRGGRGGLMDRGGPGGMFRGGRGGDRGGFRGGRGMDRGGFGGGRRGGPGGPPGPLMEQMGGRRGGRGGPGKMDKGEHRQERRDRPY
Description: (§1) microscale thermophoresis on EWSR1-C (GFP-EWSR1-C) | The binding affinity of HHT to these EWSR1 mutants was assessed through MST

EWSR1-C (GFP-EWSR1-C) [2] = biological target: T2, EWSR1-C (GFP-EWSR1-C) (Homo sapiens, UniProt Q01844, M397A)
T2 construct: C-terminal region 301-656 (contains RNA recognition motif 353-453), GFP fusion, overexpressed in HEK293T, lysate
T2 sequence (Q01844 301-656 M397A): T1 sequence (Q01844 301-656 I400A) with M97A, A100I
Description: as §1

EWSR1-C (GFP-EWSR1-C) [3] = biological target: T3, EWSR1-C (GFP-EWSR1-C) (Homo sapiens, UniProt Q01844, P396A)
T3 construct: C-terminal region 301-656 (contains RNA recognition motif 353-453), GFP fusion, overexpressed in HEK293T, lysate
T3 sequence (Q01844 301-656 P396A): T1 sequence (Q01844 301-656 I400A) with P96A, A100I
Description: as §1

EWSR1-C (GFP-EWSR1-C) [4] = biological target: T4, EWSR1-C (GFP-EWSR1-C) (Homo sapiens, UniProt Q01844, T393A)
T4 construct: C-terminal region 301-656 (contains RNA recognition motif 353-453), GFP fusion, overexpressed in HEK293T, lysate
T4 sequence (Q01844 301-656 T393A): T1 sequence (Q01844 301-656 I400A) with T93A, A100I
Description: as §1

COC(=O)C[C@](O)(CCCC(C)(C)O)C(=O)O[C@@H]1C(OC)=C[C@]23CCCN2CCc2cc4c(cc2[C@H]13)OCO4 [Homoharringtonine]
pKd (EWSR1-C (GFP-EWSR1-C) [1]): 4.45
pKd (EWSR1-C (GFP-EWSR1-C) [2]): 5.01
pKd (EWSR1-C (GFP-EWSR1-C) [3]): 4.02
pKd (EWSR1-C (GFP-EWSR1-C) [4]): 4.09
